Data published in PubChem BioAssay AID179 (DTP/NCI, 2004).
pEC50, pIC50: −log10 of the molar value. Where “and” joins values, the source holds several entries; their conditions need not be identical. Equal entries are not always repeated. Calls of active or inactive are those of the source.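 The calls were made as follows: active = compounds giving half or more protection of infected cells from virus-caused growth loss, again on retest; inactive = the rest.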 Where a SMILES comes first, the peptide text is derived from it. The star is where a group is joined. Cbz = O=C(OCc1ccccc1)*

System: CEM cells HIV-1 protection, formazan growth assay
Assay: NCI AIDS Antiviral Assay
Settings: for pIC50: measured here: growth of uninfected CEM cells
How it was run: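 Human CEM cells, uninfected and HIV-1-infected, received five drug concentrations, and growth was read by soluble formazan assay. Compounds giving at least 50% protection were retested; reproducible 100% protection defined confirmed active.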

| SMILES | pEC50 | pIC50 | outcome |
| --- | --- | --- | --- |
| Cc1cc(C(=O)N2CCN(Cc3ccccc3)CC2)c(C)o1 | < 3.13 | 3.49 | – |
| O=CC12C3CCC1C2C(=O)C3 (stereo not given) | – | < 3.70 | inactive |
| COC(=O)C1C=CN(N(C)C)C2=C1C(=O)c1c(O)cccc1C2=O (stereo not given) | < 3.70 | 5.76 | – |
| COC1[C@@H](OC(C)=O)[C@@H](NC(=O)C(Cl)(Cl)Cl)C(I)[C@@H](N2C(=O)c3ccccc3C2=O)[C@H]1OC (stereo not given in full) | < 3.70 | – | – |
| CC1(C)C(=O)/C=C\C(=O)C(C)(C)C(=O)/C=C\C(=O)C(C)(C)C2=CC=C(O2)C(C)(C)C(=O)/C=C\C1=O | – | – | inactive |
| CCc1cccc(C)c1NS(=O)(=O)c1ccccc1 | – | – | inactive |
| O=C1CSCN1N1CSCC1=O | < 3.70 | < 3.70 | – |
| CC1(C)OC(=O)N(c2ccccc2)C12C=Cc1cc([N+](=O)[O-])ccc1O2 (stereo not given) | < 3.82 | 4.21 | – |
| O=c1nc(NC(c2ccccc2)(c2ccccc2)c2ccccc2)ccn1CCCl | – | – | inactive |
| CC(=O)O[C@H]1CC[C@@]2(C)C(=CC[C@H]3C4=CC=C(C(C)=O)[C@@]4(C)CCC32)C1 (stereo not given in full) | – | – | inactive |
| CC(=O)CC(C)(C)S(=O)(=O)O | < 3.70 | < 3.70 | – |
| COc1ccc2c(c1)CC1COc3cc(OC)ccc3C1O2 (stereo not given) | < 3.70 | < 3.70 | – |
| CC(C)CC(NC(=O)C(Cc1ccc(O)cc1)NC(=O)C(CO)NC(=O)C(C)NC(=O)C(CCCN=C(N)N)NC(=O)C(CCC(=O)O)NC(=O)C(NC(=O)C(N)CCC(=O)O)C(C)C)C(=O)NC(CO)C(=O)NC(CCCCN)C(=O)O (stereo not given) (H-EVERASYLSK-OH; configuration not given here) | – | – | inactive |
| CSC1=Nc2ccccc2-c2nc(-c3ccccc3)cc(-c3ccccc3)c2C1 | < 3.70 | < 3.70 | – |
| O=C1CCCCCCCCCCC(=O)N2CCOCCOCCN1Cc1cccc(n1)C2 | < 3.39 | 3.50 | – |
| COc1cc(O)cc2c1C(=O)C(C)O2 (stereo not given) | < 3.70 | < 3.70 | – |
| CCCCCCNC(=O)CNC(=O)c1ccccc1SC(=O)CCCC[n+]1ccccc1 | < 3.70 | 4.46 | – |
| NC(CCCCCCCCCCP(=O)(O)O)C(=O)O (stereo not given) | < 3.70 | < 3.70 | – |
| COC(=O)[C@H](Cc1ccccc1)NC(=O)N1CCCN(C(=O)N[C@@H](Cc2ccccc2)C(=O)OC)CCCN(C(=O)N[C@@H](Cc2ccccc2)C(=O)OC)CCC1 | < 4.00 | 4.56 | – |
| CCN(CC)CCC1CCCCN1CC(=O)N1c2cc(Cl)ccc2NC(=O)CC1C (stereo not given) | < 3.70 | < 3.70 | – |
| COc1cccc(-c2nccc3c(OCc4ccccc4)c(OC)c(OC)cc23)c1 | – | – | inactive |

| SMILES | pEC50 | pIC50 | outcome |
| --- | --- | --- | --- |
| C/C(C=O)=C\c1ccc(N(C)C)cc1 | < 4.42 | < 4.42 | – |
| Cc1cc(=O)n2c(nc3cc(Cl)ccc32)s1 | < 4.54 | < 4.54 | – |
| COC1(C)CCC(OS(C)(=O)=O)CO1 (stereo not given) | < 3.70 | < 3.70 | – |
| COC(=O)C(C#CCCCCC#CC(NC(=O)OCc1ccccc1)(C(=O)OC)C(F)(F)F)(NC(=O)OCc1ccccc1)C(F)(F)F (stereo not given) | < 3.70 | 3.86 | – |
| S=C1NCCNC(=S)SSC(=S)SS1 | < 5.63 | < 5.63 | – |
| Cc1cn([C@H]2C(CO)[C@@H](CO)C2(C)C)c(=O)[nH]c1=O (stereo not given in full) | < 3.03 | < 3.03 | – |
| Cc1nc(Nc2ccc(Cl)cc2)sc1C(=O)NNc1ccc([N+](=O)[O-])cc1[N+](=O)[O-] | < 4.40 | 4.60 | – |
| CCOc1ccc(N=NC2C(=O)N(C(=O)CC(=O)Nc3ccccc3OC)N=C2C)cc1 (stereo not given) | < 3.70 | 5.14 | – |
| CCOC(=O)c1ccc(CSc2ccccc2C(=O)OCC)cc1 | < 5.52 | < 5.52 | – |
| COc1ccc2oc(C(=O)O)c3c2c1CCC3CCC(=O)O (stereo not given) | – | – | inactive |
| C[N+](C)=C1C=CC(=C2C=C(c3ccccc3)Oc3ccccc32)C=C1 | < 3.70 | 5.93 | – |
| CN(C)C(=S)SSC(=S)N(C)C | < 3.70 | 5.30 and 5.97 | inactive |
| CN1C(c2ccccc2)CS(=O)(=O)CS1(=O)=O (stereo not given) | – | – | inactive |
| O=C1OC(=O)C2C3CCCCC3=C3CCCCC3C12 (stereo not given) | < 3.70 | < 3.70 | – |
| O=C(Cc1nc2ccccc2o1)C(=O)Nc1cccc(C(F)(F)F)c1 | – | – | inactive |
| CC(=O)O[C@]1(C)OC(=O)[C@@H](C)N1[N+](=O)[O-] | – | – | inactive |
| [Se]=P(c1ccccc1)(c1ccccc1)c1ccc(C(c2ccccc2)=P(c2ccccc2)(c2ccccc2)c2ccccc2)cc1 | < 5.00 | 6.00 | – |
| CC1(C)OCC2(CO1)CSCCCSCC1(COC(C)(C)OC1)CSCCCSC2 | < 4.98 | < 4.98 | – |
| COc1ccc(N2C(=O)C3C=CC(n4[nH]c(=O)n(Cc5ccccc5)c4=O)CC3C2=O)cc1 (stereo not given) | < 3.39 | 3.68 | – |
| COc1cc(/C=N/NC2=NCCCN2)ccc1O | < 3.70 | < 3.70 | – |
| CC1C(O)=C(O)c2ccccc2N1O (stereo not given) | < 3.31 | 4.06 | – |

| SMILES | pEC50 | pIC50 | outcome |
| --- | --- | --- | --- |
| CCOc1cc2c(cc1O)CC[C@@H]1[C@@H]2CC[C@]2(C)C(N)CC[C@@H]12 (stereo not given in full) | < 3.70 | 5.92 | – |
| CC(=O)[C@@]1(O)CC[C@H]2[C@@H]3C[C@H](C)C4=CC(=O)C=C[C@]4(C)[C@@]3(F)[C@@H](O)C[C@@]21C | – | – | inactive |
| ClC1=NN=C(c2c[nH]c3ccccc23)CC1NCc1ccccc1 (stereo not given) | < 3.70 | < 3.70 | – |
| COC(=O)C12OC3CO[Si](C(C)C)(C(C)C)O[Si](C(C)C)(C(C)C)OC3C1Oc1nc(=O)ccn12 (stereo not given) | < 3.70 | 4.45 | – |
| Cc1c(C(=O)c2ccccc2C(=O)O)c2ccccc2n1C | – | – | inactive |
| COc1cc2c(c(OC)c1OC)C(=O)[C@H](Br)[C@H]2NC(=O)NCCCl | < 3.70 | 4.49 | – |
| O=C(Nc1ccc([N+](=O)[O-])cc1)N(c1ccccn1)c1ccccn1 | < 3.70 | 3.82 | – |
| N#C/C(=C\c1ccc2ccccc2c1)C(=O)c1ccccc1 | < 5.15 | < 5.15 | – |
| CSC(N)=Nc1cccc2ccccc12 | < 3.70 | < 3.70 | – |
| O=Nc1c(-c2ccccc2)nc2cnccn12 | < 3.70 | 5.23 | – |
| N#C/C(=C/c1ccc2c(c1)OCO2)C(=O)c1ccccc1 | < 4.44 | < 4.44 | – |
| C1=C(c2ccccc2)N2CCN=C2S1 | < 3.70 | 4.43 | – |
| CCOP(=O)(Cc1ccc(CP(=O)(OCC)OCC)n1C)OCC | – | – | inactive |
| O=C(O)c1ccc(C2C3C=CC(C3)C2[N+](=O)[O-])cc1 (stereo not given) | < 3.46 | < 3.46 | – |
| CCOP(=O)(OCC)/C(C#N)=C/c1ccc(C)o1 | < 3.03 | 3.89 | – |
| NC1(C(=O)O)CCCCC1c1ccccc1 (stereo not given) | < 4.37 | < 4.37 | – |
| CC(CO)(CO)N1C(=O)C2C3C=CC(C3)C2C1=O (stereo not given) | < 3.70 | < 3.70 | – |
| Cn1cc(C(=O)NCCC(=N)N)cc1NC(=O)C1=[N+](C)C=C(NC(=O)c2cccc(C(=O)NC3=CC(C(=O)Nc4cc(C(=O)NCCC(=N)N)cn4C)=[N+](C)C3)c2)C1 | 5.46 | 4.13 | – |
| O=c1n(CCCCn2c(=O)n(CC3CS3)c3ccccc32)c2ccccc2n1CC1CS1 (stereo not given) | < 4.54 | 5.04 | – |
| COC(=O)C(=Cc1cc(OC)c(OC)c(OC)c1-c1cc2c(cc1C1(C)OCCS1)OCO2)C(=O)OC (stereo not given) | < 4.73 | 4.81 | – |
| O=C(c1ccco1)N(C(=S)N1CCN(c2ccccn2)CC1)C1CCCCC1 | < 4.33 | 4.45 | – |

| SMILES | pEC50 | pIC50 | outcome |
| --- | --- | --- | --- |
| O=S1(=O)c2ccccc2N2C(c3ccccc3)=NOC2(c2ccccc2)CC1c1ccc(Br)cc1 (stereo not given) | – | – | inactive |
| N#C/C=C/c1ccc(C#N)cc1 | < 4.19 | < 4.19 | – |
| CC(C)(C)/C(O)=C\c1nc2cc(C(F)(F)F)ccc2[nH]c1=O | < 3.70 | < 3.70 | – |
| C=CCC1CC(n2cc(C)c(=O)[nH]c2=O)OC1CO[Si](C)(C)C(C)(C)C (stereo not given) | < 3.70 | 4.74 | – |
| NC(=O)NC(=O)c1ccco1 | < 3.70 | < 3.70 | – |
| O=C1NC(=O)C(Cc2cccc(Cl)c2)C(=O)N1 | < 3.70 | < 3.70 | – |
| CN1C/C(=C\c2ccc(Cl)cc2)C(=O)/C(=C/c2ccc(Cl)cc2)C1 | < 3.70 | 6.38 | – |
| C[N+](C)(C)CC(=O)N/N=C(/Cc1nc2ccc(Cl)cc2[nH]c1=O)C1=NS(=O)(=O)c2cc(S(N)(=O)=O)c(Cl)cc2N1 | < 3.57 | < 3.57 | – |
| O=c1oc2ccccc2c(-c2ccc(O)cc2)c1Oc1ccc(Cl)cc1 | – | – | inactive |
| CC1(C)CC(=O)C(C(=O)C(=O)NC2=C(Cl)C(=O)c3ccccc3C2=O)C(=O)C1 | < 4.75 | – | – |
| CC(=O)NNc1nc(C)c(C(/C=C/c2ccc([N+](=O)[O-])cc2)=N/N)s1 | < 4.16 | < 4.16 | – |
| COC(=O)C1=C(C(=O)OC)C2(c3ccccc3)OC1(c1ccccc1)c1cc3ccccc3cc12 | – | – | inactive |
| OCC1C(OCc2ccccc2)C(OCc2ccccc2)C(OCc2ccccc2)CN1Cc1ccccc1 (stereo not given) | – | – | inactive |
| CCOC(=O)CC(NC(=O)C(CC(=O)OC)NC(=O)C(CC(=O)OC)NC(=O)C(CC(=O)OC)NC(=O)C(CC(=O)OC)NC(=O)C(CC(=O)OC)NC(=O)C(CC(=O)OC)NC(=O)C(CC(=O)OC)NC(=O)OCc1ccccc1)C(=O)OCC (stereo not given) (Cbz-D(OMe)D(OMe)D(OMe)D(OMe)D(OMe)D(OMe)D(OMe)D(OEt)-OEt; configuration not given here) | < 4.00 | < 4.00 | – |
| CC1CC2Oc3ccc(Cl)cc3C(=O)N2O1 (stereo not given) | < 3.70 | < 3.70 | – |
| CCC(C)C(NC(=O)CNC(=O)C(Cc1c[nH]c2ccccc12)NC(=O)C(NC(=O)C(NC(=O)C(N)CC(C)C)C(C)O)C(C)C)C(=O)NC(CCCCN)C(=O)NC(CCC(N)=O)C(=O)NC(CC(C)C)C(=O)NC(CCC(N)=O)C(=O)NC(C)C(=O)NC(CCCN=C(N)N)C(N)=O (stereo not given) (H-LTVWGIKQLQAR-NH2; configuration not given here) | < 4.30 | < 4.30 | – |
| COC(=O)Oc1nn(C(=O)OC)c(=O)c2ccccc12 | < 3.70 | < 3.70 | – |
| CC(=O)N/C(=C\c1ccc(/C=C(\NC(C)=O)c2nc3ccc(Cl)cc3[nH]2)cc1)c1nc2ccccc2[nH]1 | – | – | inactive |
| CCN=C(N)C(C)SS(=O)(=O)O (stereo not given) | < 3.70 | 3.77 | – |
